Here are results for 11 compounds from patent publication US11793782B2, “Therapeutic agents for neurodegenerative diseases” (priority 2017, dated 2023).

For data set [1], the system named is frontotemporal dementia with parkinsonism patient. The data set is described as follows: Case study, frontotemporal dementia with parkinsonism. The following applies: frontotemporal dementia with parkinsonism patient; treatment with L-Dopa and Ropinirol. It counts as in vivo, human. The source says: After approximately one month of acetyl-leucine treatment, medication was stopped and the patient was re-examined 13 days later.

Data set [2] relates to downbeat nystagmus patients. The data set is described as follows: Case studies, downbeat nystagmus patients. In kind it is in vivo, human. Particulars: downbeat nystagmus Patient 2.
For data set [3], the system named is downbeat nystagmus patients. Kind of data set: Case studies, downbeat nystagmus patients. In kind it is in vivo, human. Particulars: downbeat nystagmus Patient 1; 10 mg twice daily for four weeks. An excerpt:
The patient was diagnosed with downbeat nystagmus: the patient was severely impaired by blurred vision (oscillopsia) due to the nystagmus, and experienced difficulties while reading and writing. The patient's visual acuity was: right 0.75, left 0.67, binocular 0.83, and the downbeat nystagmus was documented by video-oculography. […] The patient could partially suppress the nystagmus by visual fixation, as evaluated using a target center (dot presented in the center of a display for 30 seconds, FIG. 13A) and in complete darkness using goggles covered with special glasses for 45 seconds (FIG. 13B). The results (median of slow phase velocity, SPV) were as follows: Target Center-horizontal: −0.02°/s, vertical: 2.41°/s; Complete Darkness-horizontal: 0.05°/s, vertical: 3.27°/s (FIG. 13C).

In data set [4] the test system is NPC Chinese Hamster Ovary (CHO) cells. Kind of data set: Relative lysosomal volume via LysoTracker, NPC CHO cells. It counts as cell-based. The following applies: 1 mM, 72 hours, p<0.01 versus untreated NPC1-null. An excerpt:
Relative lysosomal volume was quantified via LysoTracker.

The test system of data set [5] is progressive supranuclear palsy patients. Kind of data set: Case studies, progressive supranuclear palsy patients. It counts as in vivo, human. How it is done:
After 27 days of acetyl-leucine treatment, medication was stopped and the patient was re-examined 60 days later. […] Gait analysis was performed before treatment commenced. […] Gait analysis was performed before treatment commenced. After 17 days of treatment, medication was stopped and the patient was re-examined 4 days later. […] Gait analysis was performed before treatment commenced. After three weeks of treatment, medication was stopped and the patient was re-examined.

Data set [6] has as its system MSA-P patients. The data set is described as follows: Case studies, multiple system atrophy Parkinson type (MSA-P) patients. In kind it is in vivo, human. The following applies: MSA-P Patient 3. An excerpt:
Medication was stopped. […] The patient evaluated after one month on acetyl-DL-leucine. […] Episodes of mental confusion completely disappeared. The patient's cognitive structure seemed much clearer and straighter. […] The patient's spouse supported continuing the medication.

Data set [7] concerns restless leg syndrome patients. The data set is described as follows: Case studies, restless legs syndrome (IRLS score). It counts as in vivo, human. The source says:
A widely reported rating scale known as the International Restless Leg Syndrome Study Group Rating Scale (“IRLS”) was developed by the International Restless Legs Syndrome Study Group (“IRLSSG”) (http://www.irlssg.org/) (Walters et al., Validation of the International Restless Legs Syndrome Study Group rating scale for restless legs syndrome. Sleep medicine. 2003 Apr. 1; 4(2):121-32). The IRLS is a 10-item scale with scores ranging from 0 (no symptoms) to 40. Scores >30 are considered very severe, severe (Score 21-30), moderate (scores 11-20) and ≤10, mild. Use of the scale is common for clinical assessment, research and therapeutic trials with RLS. In one embodiment, treatment with leucine, acetyl-leucine, or a pharmaceutically acceptable salt thereof as described herein decreases the subject's International Restless Leg Syndrome Study Group Rating Scale (“IRLS”) compared to a baseline. In one embodiment, the IRLS is reduced compared to baseline by at least 10%, at least 20%, at least 30%, at least 40%, or at least 50%. In one embodiment, the IRLS is reduced by at least 60%, at least 70%, at least 80%, at least 90%, or 100%.
The patient in this case study was a person showing proximal weakness of the so lower limb. […] Upon consultation, they reported no sensory symptoms but complained of a restless leg syndrome at night and during resting periods of the day, occurring over the course of the last two years. Pre-treatment with dopamine agonist were without symptom relief. Serum creatine kinase activity was only mildly elevated at up to 400 IU/L. The patient was evaluated using the RLS diagnostic index (RLS-DI) (see Walters et al., Sleep Med 2003; 4(2):121-132;). The patient's International Restless Legs Syndrome Rating Scale score (IRLS) was 36, and thus a severe RLS was diagnosed. […] Re-introduction of the treatment re-declined the score to 8 after 2 weeks. Continuation of treatment over more than 22 weeks stabilized the IRLS score at 8.
The patient in this case study was a person showing proximal weakness of the lower limb. […] Upon consultation, they reported no sensory symptoms but complained of a restless leg syndrome at night and during resting periods of the day, occurring over the course of the last eight years. […] Serum creatine kinase activity was mildly elevated at 300 IU/L. Iron measurements and all additional lab investigations were normal. The patient was evaluated using the RLS-DI and the patient's IRLS was 32, and thus a moderate to severe RLS was diagnosed. […] Continuation of treatment over more than 28 weeks stabilized the IRLS score at 8.
The patient in this case study was a person showing mild proximal weakness of the upper and lower limbs slowly progressive. The patient had been diagnosed (genetically confirmed) with McArdle myopathy about 16 years ago. Upon consultation, they reported no sensory symptoms but complained about a severe fatigue and reduced stamina. The patient further reported a restless leg syndrome at night and during resting periods of the day, occurring over the course of the last 12 years. […] Serum creatine kinase activity was mildly elevated at 200 IU/L; however, the patient had 5 episodes of rhabdomyolysis during the past 20 years. Repeated iron measurements and all additional lab investigations were normal. The patient was evaluated using the RLS-DI and the patient's IRLS was 34, and thus a severe RLS was diagnosed. […] Continuation of treatment over more than 30 weeks stabilized the IRLS score at 10. In addition, the patient's fatigue declined (Fatigue Severit Scale: 9 (minimum) to 63 (maximum)) from 53 to 28.

The test system of data set [8] is corticobasal syndrome patient. Kind of data set: Case study, corticobasal syndrome. It counts as in vivo, human. How it is done:
Gait analysis was performed before treatment commenced.

For data set [9], the system named is MSA-P patients. The data set is described as follows: Case studies, multiple system atrophy Parkinson type (MSA-P) patients. In kind it is in vivo, human. Particulars: MSA-P Patient 1; 100/25 mg 3×daily.
Data set [10] deals with Lewy Body dementia patient. The data set is described as follows: Case study, Lewy Body dementia. It counts as in vivo, human. The following applies: Levodopa 100 mg 4× daily and Quetiapin 25 mg at night. How it is done:
The patient started taking acetyl-leucine (3 g/day for one week; 5 g/day thereafter) and was evaluated after four weeks. […] Medication was reduced to 3 g/day, and the patient was instructed to stop medication about two weeks later.

Data set [11] relates to rat model of an acute unilateral labyrinthectomy. Particulars: Zwergal et al. (2016); Gunther et al. (2015); cited from earlier work.
Another data set deals with ALS patients. The data set is described as follows: Case studies, amyotrophic lateral sclerosis (ALS) patients. In kind it is in vivo, human. The following applies: ALS Patient 1; medication started around the time of ALS diagnosis. An excerpt: The results were documented by video.

Turning to `CCCN(CCC)CCc1cccc2c1CC(=O)N2` [Ropinirol, reference compound], in data set [1], the Clinical response result was “little improvement”.

As for `Nc1ccncc1` [4-aminopyridine, reference compound], the Clinical response result in [2] is “did not benefit”; in [3] it was “did not give rise to any benefit”.

For the compound `CC(C)C[C@H](N)C(=O)O` [L-leucine], the “Lysosomal volume (LysoTracker)” value in data set [4] was “significantly reduced lysosomal volume”.

`N[C@@H](Cc1ccc(O)c(O)c1)C(=O)O` [L-Dopa, reference compound]: the Clinical response result in data set [5] (PSP Patient 1) was “little improvement”; in data set [5] (PSP Patient 2), “no levodopa response”; in data set [5] (PSP Patient 3) it was “no levodopa response”; in [5] (PSP Patient 4), “slight levodopa response”; in data set [1], “little improvement”; in data set [8], “no improvement”. Besides, the Clinical response result in the data set with MSA-P patients [9] is “discreet Levodopa response”; in [10], “improved the symptomatology”. Also, the Tolerability result in the data set on MSA-P patients [6] is recorded as “suspended due to side effects”. Further, the “Symptom relief (pre-treatment)” value in data set [7] (RLS Patient 2) and in data set [7] (RLS Patient 3) was “without sustained symptom relief” throughout.

Turning to `CC(=O)N[C@@H](CC(C)C)C(=O)O` [acetyl-L-leucine], in data set [11], the “Effect on postural compensation” value is given as “significant effect”. For the same compound, in data set [4], the “Lysosomal volume (LysoTracker)” value is “significantly reduced lysosomal volume”.

With `CC(C)C[C@@H](N)C(=O)O` [D-leucine], the “Lysosomal volume (LysoTracker)” value in data set [4] is recorded as “significantly reduced lysosomal volume”.

Consider `CC(C)CC(N)C(=O)O` (racemic) [DL-leucine], for which the “Lysosomal volume (LysoTracker)” value in data set [4] is given as “significantly reduced lysosomal volume”.

On to `CC(C)C[C@H](CN)CC(=O)O` [pregabaline, reference compound], for which the “Symptom relief (pre-treatment)” value in [7] (RLS Patient 2) and in data set [7] (RLS Patient 3) was “without sustained symptom relief” throughout.

Consider `OCCOCCN1CCN(C2=Nc3ccccc3Sc3ccccc32)CC1` [Quetiapin, reference compound], for which the Clinical response entry in data set [10] is recorded as “improved the symptomatology”.

On to `CC(=O)N[C@H](CC(C)C)C(=O)O` [acetyl-D-leucine], for which the “Lysosomal volume (LysoTracker)” value in data set [4] was “significantly reduced lysosomal volume”.

Turning to `Nc1nc2ccc(OC(F)(F)F)cc2s1` [Riluzol, reference compound], the Clinical symptomatology entry in the data set with ALS patients is “clinical symptomatology remained unchanged”.
